According to patent US11976083B2, “Inhibitors of peptidylarginine deiminases” (Gilead Sciences, Inc., priority 2020, dated 2024):

Biological target: T1, human PAD4 (Homo sapiens, UniProt Q9UM07)
T1 construct: human PAD4 (NM_012387), A2-P663, was PCR amplified; His-SUMO (N, cleaved yes); made in house; host or cells: E. coli BL21(DE3)
Assay: In vitro PAD4 BAEE biochemical assay
Settings: BAEE substrate 3 mM, 5 nM PAD4, 2 mM calcium chloride; geometric mean of multiple experiments
Text: In Vitro PAD4 BAEE Biochemical Assay
The enzymatic activity of human PAD4 was monitored in a biochemical assay in the presence or absence of compounds using the small peptidyl arginine mimic BAEE (Na-Benzoyl-L-arginine ethyl ester hydrochloride) as substrate. PAD4 activity led to deimination of BAEE and release of ammonia. Levels of ammonia were monitored by using an amine coupling reaction and were indicative of PAD4 enzymatic activity.
One hundred nanoliters of test compounds dissolved in DMSO at various concentrations were dispensed into a 384-well black OptiPlate using a Labcyte Echo instrument. Ten microliters of a solution of recombinant PAD4 and calcium chloride diluted in PAD4 assay buffer (50 mM MOPS [3-(N-morpholino) propanesulfonic acid], pH 7.6; 50 mM sodium chloride; 0.05% Tween-20; 2 mM dithiothreitol) was added to the compound-containing plate and was incubated for 30 minutes at 25° C. Ten microliters of a solution of BAEE (Sigma-Aldrich #B4500) diluted in PAD4 assay buffer was then added to start the reaction. Final concentrations were 5 nM PAD4, 2 mM calcium chloride, and 3 mM BAEE. The reaction mixture was incubated at 25° C. for 2 hours and was stopped with the addition of 10 microliters of a solution of 75 mM EDTA (Ethylenediaminetetraacetic acid) in PAD4 assay buffer. Thirty microliters of detection solution (5 mM o-phthalaldehyde, 50 mM MOPS [3-(N-morpholino) propanesulfonic acid], pH 7.6; 50 mM sodium chloride; 0.05% Tween-20; 5 mM dithiothreitol) was then added and the reaction was incubated for 1 hour at 25° C. The level of fluorescent thiol-substituted isoindole resulting from the reaction of ammonia, o-phthalaldehyde, and dithiothreitol was measured on an Envision plate reader (PerkinElmer) with 405 nm excitation and 535 nm emission.
Data were normalized based on maximum inhibition (50 micromolar of the covalent PAD inhibitor BB-Cl-Amidine (Bicker, K. L.; Anguish, L.; Chumanevich, A. A.; Cameron, M. D.; Cui, X.; Witalison, E.; Subramanian, V.; Zhang, X.; Chumanevich, A. P.; Hofseth, L. J.; Coonrod, S. A.; Thompson, P. R. ACS Med. Chem. Lett. 2012, 3, 1081-1085). and no inhibition (DMSO) controls. Least squares curve fittings were performed using a four-parameter variable slope nonlinear regression model. IC50 is defined as the concentration of compound required to inhibit 50% of maximum activity. IC50 values from multiple experiments were averaged by geometric mean and the standard deviation was calculated.

T1 sequence (Q9UM07 2-663): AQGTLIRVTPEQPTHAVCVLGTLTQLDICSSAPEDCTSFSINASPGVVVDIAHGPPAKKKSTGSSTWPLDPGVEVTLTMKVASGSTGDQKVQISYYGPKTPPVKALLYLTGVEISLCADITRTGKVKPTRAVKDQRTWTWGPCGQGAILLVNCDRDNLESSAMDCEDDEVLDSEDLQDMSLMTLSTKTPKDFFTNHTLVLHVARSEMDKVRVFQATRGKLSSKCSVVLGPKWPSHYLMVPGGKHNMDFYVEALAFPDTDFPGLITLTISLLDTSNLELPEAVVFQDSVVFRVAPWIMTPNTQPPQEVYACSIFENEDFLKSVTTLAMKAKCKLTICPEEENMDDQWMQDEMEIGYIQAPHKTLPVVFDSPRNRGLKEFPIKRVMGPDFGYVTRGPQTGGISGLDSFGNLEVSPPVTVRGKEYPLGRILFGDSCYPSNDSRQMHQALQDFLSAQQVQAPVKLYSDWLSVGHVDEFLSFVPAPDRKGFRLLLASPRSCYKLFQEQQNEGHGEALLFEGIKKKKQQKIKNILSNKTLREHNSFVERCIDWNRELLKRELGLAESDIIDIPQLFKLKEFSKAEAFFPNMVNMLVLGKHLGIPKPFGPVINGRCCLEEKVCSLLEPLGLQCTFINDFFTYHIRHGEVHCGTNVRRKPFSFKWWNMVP

Row | Structure (SMILES) | IC50
1 | COc1cc(C(=O)N2CCC[C@@H](N)C2)cc2nc(-c3cc4ccc5nc4n3CCC/C=C/C[C@@](C)(C(F)(F)F)C(=O)N[C@@H]5C)n(C)c12 (single isomer, unassigned) [Example 2, (5˜{E},8˜{R},11˜{R})-17-[5-[(3˜{R})-3-aminopiperidine-1-carbonyl]-7-methoxy-1-methyl-benzimidazol-2-yl]-8,11-dimethyl-8-(trifluoromethyl)-1,10,19-triazatricyclo[10.5.2.0^{15,18}]nonadeca-5,12(19),13,15(18),16-pentaen-9-one] | 75 nM
2 | COc1cc(C(=O)N2CCC[C@@H](N)C2)cc2nc(-c3cc4ccc5nc4n3CCC/C=C/C[C@](C)(C(F)(F)F)C(=O)N[C@@H]5C)n(C)c12 (single isomer, unassigned) [Example 3, (5˜{E},8˜{S},11˜{R})-17-[5-[(3˜{R})-3-aminopiperidine-1-carbonyl]-7-methoxy-1-methyl-benzimidazol-2-yl]-8,11-dimethyl-8-(trifluoromethyl)-1,10,19-triazatricyclo[10.5.2.0^{15,18}]nonadeca-5,12(19),13,15(18),16-pentaen-9-one] | 110 nM
3 | COc1cc(C(=O)N2[C@H]3CC[C@@H]2[C@H](N)C3)cc2nc(-c3cc4ccc5nc4n3C[C@@H]3[C@H](COCCC(=O)N[C@@H]5C)C3(C)C)n(C)c12 (single isomer, unassigned) [Example 10, (3˜{R},5˜{S},12˜{R})-18-[5-[(1˜{R},2˜{R},4˜{S})-2-amino-7-azabicyclo[2.2.1]heptane-7-carbonyl]-7-methoxy-1-methyl-benzimidazol-2-yl]-4,4,12-trimethyl-7-oxa-1,11,20-triazatetracyclo[11.5.2.0^{3,5}.0^{16,19}]icosa-13(20),14,16(19),17-tetraen-10-one] | 56 nM
4 | COc1cc(C(=O)N2[C@H]3CC[C@@H]2[C@H](N)C3)cc2nc(-c3cc4ccc5nc4n3C[C@H]3[C@@H](COCCC(=O)N[C@@H]5C)C3(C)C)n(C)c12 (single isomer, unassigned) [Example 11, (3˜{S},5˜{R},12˜{R})-18-[5-[(1˜{R},2˜{R},4˜{S})-2-amino-7-azabicyclo[2.2.1]heptane-7-carbonyl]-7-methoxy-1-methyl-benzimidazol-2-yl]-4,4,12-trimethyl-7-oxa-1,11,20-triazatetracyclo[11.5.2.0^{3,5}.0^{16,19}]icosa-13(20),14,16(19),7-tetraen-10-one] | 251 nM
5 | COc1cc(C(=O)N2CCC[C@@H](N)C2)cc2nc(-c3cc4ccc5nc4n3C[C@H]3C[C@H]3CC[C@@H]3C[C@H]3C(=O)N[C@@H]5C)n(C)c12 (single isomer, unassigned) [Example 115, (3˜{S},5˜{R},8˜{R},10˜{R},13˜{R})-19-[5-[(3˜{R})-3-aminopiperidine-1-carbonyl]-7-methoxy-1-methyl-benzimidazol-2-yl]-13-methyl-1,12,21-triazapentacyclo[12.5.2.0^{3,5}.0^{8,10}.0^{17,20}]henicosa-14(21),15,17(20),18-tetraen-11-one] | 40 nM
6 | COc1cc(C(=O)N2CCC[C@@H](N)C2)cc2nc(-c3cc4ccc5nc4n3C[C@H]3C[C@H]3CC[C@H]3C[C@@H]3C(=O)N[C@@H]5C)n(C)c12 (single isomer, unassigned) [Example 116, (3˜{S},5˜{R},8˜{S},10˜{S},13˜{R})-19-[5-[(3˜{R})-3-aminopiperidine-1-carbonyl]-7-methoxy-1-methyl-benzimidazol-2-yl]-13-methyl-1,12,21-triazapentacyclo[12.5.2.0^{3,5}.0^{8,10}.0^{17,20}]henicosa-14(21),15,17(20),18-tetraen-11-one] | 255 nM
7 | COc1cc(C(=O)N2[C@H]3CC[C@@H]2[C@H](N)C3)cc2nc(-c3cc4ccc5nc4n3CCCCC[C@@H]3C[C@H]3C(=O)N[C@@H]5C)n(C)c12 (single isomer, unassigned) [Example 223, (2˜{R},5˜{R},7˜{R})-14-[5-[(1˜{R},2˜{R},4˜{S})-2-amino-7-azabicyclo[2.2.1]heptane-7-carbonyl]-7-methoxy-1-methyl-benzimidazol-2-yl]-2-methyl-3,13,19-triazatetracyclo[11.5.2.0^{5,7}.0^{16,20}]icosa-1(19),14,16(20),17-tetraen-4-one] | 28 nM
8 | COc1cc(C(=O)N2[C@H]3CC[C@@H]2[C@H](N)C3)cc2nc(-c3cc4ccc5nc4n3CCCCC[C@H]3C[C@@H]3C(=O)N[C@@H]5C)n(C)c12 (single isomer, unassigned) [Example 224, (2˜{R},5˜{S},7˜{S})-14-[5-[(1˜{R},2˜{R},4˜{S})-2-amino-7-azabicyclo[2.2.1]heptane-7-carbonyl]-7-methoxy-1-methyl-benzimidazol-2-yl]-2-methyl-3,13,19-triazatetracyclo[11.5.2.0^{5,7}.0^{16,20}]icosa-1(19),14,16(20),17-tetraen-4-one] | 57 nM
9 | COc1cc(C(=O)N2CCC[C@@H](N)C2)cc2nc(-c3cc4ccc5nc4n3CCCCCCCC(=O)N[C@@H]5C(F)(F)F)n(C)c12 (single isomer, unassigned) [Example 235, (11˜{S})-17-[5-[(3˜{R})-3-aminopiperidine-1-carbonyl]-7-methoxy-1-methyl-benzimidazol-2-yl]-11-(trifluoromethyl)-1,10,19-triazatricyclo[10.5.2.0^{15,18}]nonadeca-12(19),13,15(18),16-tetraen-9-one] | 113 nM
10 | COc1cc(C(=O)N2CCC[C@@H](N)C2)cc2nc(-c3cc4ccc5nc4n3CCCCCCCC(=O)N[C@H]5C(F)(F)F)n(C)c12 (single isomer, unassigned) [Example 236, (11˜{R})-17-[5-[(3˜{R})-3-aminopiperidine-1-carbonyl]-7-methoxy-1-methyl-benzimidazol-2-yl]-11-(trifluoromethyl)-1,10,19-triazatricyclo[10.5.2.0^{15,18}]nonadeca-12(19),13,15(18),16-tetraen-9-one] | 858 nM
11 | COc1cc(C(=O)N2CC[C@H]3OCCN[C@H]3C2)cc2nc(-c3cc4ccc5nc4n3C[C@H]3C[C@H]3COCCC(=O)N[C@@H]5C)n(C)c12 (single isomer, unassigned) [Example 245, (3˜{S},5˜{R},12˜{R})-18-[5-[(4˜{a}˜{S},8˜{a}˜{R})-2,3,4,4˜{a},5,7,8,8˜{a}-octahydropyrido[4,3-b][1,4]oxazine-6-carbonyl]-7-methoxy-1-methyl-benzimidazol-2-yl]-12-methyl-7-oxa-1,11,20-triazatetracyclo[11.5.2.0^{3,5}.0^{16,19}]icosa-13(20),14,16(19),17-tetraen-10-one] | 411 nM
12 | COc1cc(C(=O)N2CC[C@@H]3OCCN[C@@H]3C2)cc2nc(-c3cc4ccc5nc4n3C[C@H]3C[C@H]3COCCC(=O)N[C@@H]5C)n(C)c12 (single isomer, unassigned) [Example 246, (3˜{S},5˜{R},12˜{R})-18-[5-[(4˜{a}˜{R},8˜{a}˜{S})-2,3,4,4˜{a},5,7,8,8˜{a}-octahydropyrido[4,3-b][1,4]oxazine-6-carbonyl]-7-methoxy-1-methyl-benzimidazol-2-yl]-12-methyl-7-oxa-1,11,20-triazatetracyclo[11.5.2.0^{3,5}.0^{16,19}]icosa-13(20),14,16(19),17-tetraen-10-one] | 3320 nM
13 | COc1cc(C(=O)N2CC[C@H]3CCCN[C@H]3C2)cc2nc(-c3cc4ccc5nc4n3CCCCCCC(C)(C)C(=O)N[C@@H]5C)n(C)c12 (single isomer, unassigned) [Example 261, (11˜{R})-17-[5-[(4˜{a}˜{R},8˜{a}˜{R})-2,3,4,4˜{a},5,6,8,8˜{a}-octahydro-1˜{H}-1,7-naphthyridine-7-carbonyl]-7-methoxy-1-methyl-benzimidazol-2-yl]-8,8,11-trimethyl-1,10,19-triazatricyclo[10.5.2.0^{15,18}]nonadeca-12(19),13,15(18),16-tetraen-9-one] | 106 nM
14 | COc1cc(C(=O)N2CC[C@@H]3CCCN[C@@H]3C2)cc2nc(-c3cc4ccc5nc4n3CCCCCCC(C)(C)C(=O)N[C@@H]5C)n(C)c12 (single isomer, unassigned) [Example 262, (11˜{R})-17-[5-[(4˜{a}˜{S},8˜{a}˜{S})-2,3,4,4˜{a},5,6,8,8˜{a}-octahydro-1˜{H}-1,7-naphthyridine-7-carbonyl]-7-methoxy-1-methyl-benzimidazol-2-yl]-8,8,11-trimethyl-1,10,19-triazatricyclo[10.5.2.0^{15,18}]nonadeca-12(19),13,15(18),16-tetraen-9-one] | 4440 nM
